Source: patent US20200131196A1 (Mount Tam Therapeutics, Inc., priority 2017, published 2020)

Experiments:
A431 = assay: OncoPanel cell proliferation assay, A431; type: cell-based, human; details: for GI50: A-431, read-out: Cell Count GI50; for IC50: A-431, read-out: Cell Count IC50
Protocol: (§1) Cells were grown in RPMI 1640, 10% FBS, 2 mM L-alanyl-L-glutamine, 1 mM Na pyruvate, or a special medium. Cells were seeded into 384-well plates and incubated in a humidified atmosphere of 5% CO2 at 37° C. Compounds were added the day following cell seeding. At the same time, a time zero untreated cell plate was generated. After a 3-day incubation period, cells were fixed and stained to allow fluorescence imaging of nuclei. Compounds (1 mM stock solutions) were serially diluted in half-log steps from the highest test concentration ([…]), and assayed over 10 concentrations with a maximum assay concentration of 0.1% DMSO. Automated fluorescence microscopy was carried out using a Molecular Devices ImageXpress Micro XL high-content imager, and images were collected with a 4× objective. 16-bit TIFF images were acquired and analyzed with MetaXpress 5.1.0.41 software.
(§2) Cell proliferation was measured by the fluorescence intensity of an incorporated nuclear dye. The output is referred to as the relative cell count, where the measured nuclear intensity is transformed to percent of control (POC) using the following formula: […]
(§3) Cellular response parameters were calculated using nonlinear regression to a sigmoidal single-site dose response model:
(§4) EC50 is the test compound concentration at the curve inflection point or half the effective response (parameter C of the fitted curve solution). GI50 is the concentration needed to reduce the observed growth by half (midway between the curve maximum and the time zero value). “Cell Count Activity Area” is an estimate of the integrated area above the curve (Barretina, et al. The Cancer Cell Line Encyclopedia enables predictive modelling of anticancer drug sensitivity. Nature 483: 603-607). […] In rare instances, values <0 or >10 may be observed. […] Curve-fitting, calculations, and report generation was performed using a custom data reduction engine and MathIQ based software (AIM).

SCaBER = assay: OncoPanel cell proliferation assay, SCaBER; type: cell-based, human; details: for GI50: read-out: Cell Count GI50
Protocol: as §1, §2, §3, §4

CAMA-1 = assay: OncoPanel cell proliferation assay, CAMA-1; details: for Cell Count Activity Area: CAMA-1; for EC50: CAMA-1, read-out: Cell Count EC50; for IC50: CAMA-1, read-out: Cell Count IC50
Protocol: (§5) Cells were seeded into 384-well plates and incubated in a humidified atmosphere of 5% CO2 at 37° C. Compounds were added the day following cell seeding. At the same time, a time zero untreated cell plate was generated. After a 3-day incubation period, cells were fixed and stained to allow fluorescence imaging of nuclei. Compounds (1 mM stock solutions) were serially diluted in half-log steps from the highest test concentration (1 micromol), and assayed over 10 concentrations with a maximum assay concentration of 0.1% DMSO. Automated fluorescence microscopy was carried out using a Molecular Devices ImageXpress Micro XL high-content imager, and images were collected with a 4× objective. 16-bit TIFF images were acquired and analyzed with MetaXpress 5.1.0.41 software.
(§6) GI50 is the concentration needed to reduce the observed growth by half (midway between the curve maximum and the time zero value). […] In rare instances, values <0 or >10 may be observed. […] Curve-fitting, calculations, and report generation was performed using a custom data reduction engine and MathIQ based software (AIM).

SK-MEL-28 = assay: OncoPanel cell proliferation assay, SK-MEL-28; type: cell-based, human; details: for GI50: read-out: Cell Count GI50; for IC50: read-out: Cell Count IC50
Protocol: as §1, §2, §3, §4

AsPC-1 = assay: OncoPanel cell proliferation assay, AsPC-1; details: for Cell Count Activity Area: AsPC-1
Protocol: as §5, §6

CML-T1 = assay: OncoPanel cell proliferation assay, CML-T1; type: cell-based, human; details: for EC50: read-out: Cell Count EC50; for GI50: read-out: Cell Count GI50
Protocol: as §1, §2, §3, §4

PC-3 = assay: OncoPanel cell proliferation assay, PC-3; details: for EC50: PC-3, read-out: Cell Count EC50; for GI50: PC-3, read-out: Cell Count GI50; for Cell Count Activity Area: PC-3
Protocol: as §5, §6

AGS = assay: OncoPanel cell proliferation assay, AGS; type: cell-based, human; details: for GI50: read-out: Cell Count GI50; for IC50: read-out: Cell Count IC50
Protocol: as §1, §2, §3, §4

T24 = assay: OncoPanel cell proliferation assay, T24; type: cell-based, human; details: for GI50: T-24, read-out: Cell Count GI50
Protocol: as §1, §2, §3, §4

SNU-C2B = assay: OncoPanel cell proliferation assay, SNU-C2B; type: cell-based, human; details: for EC50: read-out: Cell Count EC50; for GI50: read-out: Cell Count GI50
Protocol: as §1, §2, §3, §4

SK-UT-1 = assay: OncoPanel cell proliferation assay, SK-UT-1; details: for EC50: SK-UT-1, read-out: Cell Count EC50; for GI50: SK-UT-1, read-out: Cell Count GI50; for Cell Count Activity Area: SK-UT-1
Protocol: as §5, §6

NCIH446 = assay: OncoPanel cell proliferation assay, NCIH446; type: cell-based, human; details: for EC50: NCI-H446, read-out: Cell Count EC50; for GI50: NCI-H446, read-out: Cell Count GI50
Protocol: as §1, §2, §3, §4

786-O = assay: OncoPanel cell proliferation assay, 786-O; type: cell-based, human; details: 786-O; for EC50: read-out: Cell Count EC50; for GI50: read-out: Cell Count GI50
Protocol: as §1, §2, §3, §4

CRO-AP2 = assay: OncoPanel cell proliferation assay, CRO-AP2; type: cell-based, human; details: for GI50: read-out: Cell Count GI50
Protocol: as §1, §2, §3, §4

[1] = Homo sapiens, read-out: Cell Count EC50
[2] = Homo sapiens, read-out: Cell Count IC50

CN[C@@H]1C[C@H]2O[C@@](C)([C@@H]1OC)n1c3ccccc3c3c4c(c5c6ccccc6n2c5c31)C(=O)NC4 [Staurosporine, reference compound]
Cell Count Activity Area (A431): 5.64
GI50 (A431; Homo sapiens): 1.03 nM
IC50 (A431; Homo sapiens): 1.19 nM
Cell Count Activity Area (SCaBER): 6.03
GI50 (SCaBER; Homo sapiens): 0.474 nM
Cell Count Activity Area (CAMA-1): 2.99
EC50 (CAMA-1; Homo sapiens): 20.2 nM
GI50 (CAMA-1; Homo sapiens, CAMA-1, read-out: Cell Count GI50): 12 nM
IC50 (CAMA-1; Homo sapiens): 99 nM
Cell Count Activity Area (SK-MEL-28): 2.81
GI50 (SK-MEL-28; Homo sapiens): 32.1 nM
IC50 (SK-MEL-28; Homo sapiens): 64.3 nM
Cell Count Activity Area (AsPC-1): 3.28
Cell Count Activity Area (CML-T1): 4.13
EC50 (CML-T1; Homo sapiens): 7.06 nM
GI50 (CML-T1; Homo sapiens): 6.96 nM
EC50 (PC-3; Homo sapiens): 0.903 nM
GI50 (PC-3; Homo sapiens): 1.07 nM
Cell Count Activity Area (PC-3): 4.67
Cell Count Activity Area (AGS): 6.19
GI50 (AGS; Homo sapiens): 0.926 nM
IC50 (AGS; Homo sapiens): 1.21 nM
Cell Count Activity Area (T24): 5.96
GI50 (T24; Homo sapiens): 0.829 nM
Cell Count Activity Area (SNU-C2B): 3.80
EC50 (SNU-C2B; Homo sapiens): 15.8 nM
GI50 (SNU-C2B; Homo sapiens): 4.97 nM
EC50 (SK-UT-1; Homo sapiens): 21.8 nM
GI50 (SK-UT-1; Homo sapiens): 19.5 nM
Cell Count Activity Area (SK-UT-1): 3.46
Cell Count Activity Area (NCIH446): 2.81
EC50 (NCIH446; Homo sapiens): 32.6 nM
GI50 (NCIH446; Homo sapiens): 16.8 nM
Cell Count Activity Area (786-O): 4.87
EC50 (786-O; Homo sapiens, 786-0): 3.58 nM
GI50 (786-O; Homo sapiens, 786-0): 3.41 nM
Cell Count Activity Area (CRO-AP2): 3.99
GI50 (CRO-AP2; Homo sapiens): 13.2 nM

CO[C@H]1C[C@@H]2CC[C@@H](C)[C@@](O)(O2)C(=O)C(=O)N2CCCC[C@H]2C(=O)O[C@H]([C@H](C)C[C@@H]2CC[C@@H](O)[C@H](OC)C2)CC(=O)[C@H](C)/C=C(\C)[C@@H](O)[C@@H](OC)C(=O)[C@H](C)C[C@H](C)/C=C/C=C/C=C/1C [Rapamycin, reference compound]
Cell Count Activity Area (A431): 0.28
EC50 (A431; Homo sapiens, A-431, read-out: Cell Count EC50): > 1000 nM
GI50 (A431; Homo sapiens): > 1000 nM
IC50 (A431; Homo sapiens): > 1000 nM
Cell Count Activity Area (SCaBER): 5.25
EC50 (SCaBER; [1]): 0.0377 nM
GI50 (SCaBER; Homo sapiens): 0.158 nM
IC50 (SCaBER; [2]): 0.321 nM
Cell Count Activity Area (CAMA-1): 4.07
EC50 (CAMA-1; Homo sapiens): 0.194 nM
IC50 (CAMA-1; Homo sapiens): 1.19 nM
Cell Count Activity Area (SK-MEL-28): 2.50
EC50 (SK-MEL-28; [1]): 0.654 nM
GI50 (SK-MEL-28; Homo sapiens): 98.7 nM
IC50 (SK-MEL-28; Homo sapiens): > 1000 nM
Cell Count Activity Area (AsPC-1): 1.48
EC50 (AsPC-1; Homo sapiens, ASPC1, read-out: Cell Count EC50): > 1000 nM
GI50 (AsPC-1; Homo sapiens, ASPC1, read-out: Cell Count GI50): > 1000 nM
IC50 (AsPC-1; Homo sapiens, ASPC1, read-out: Cell Count IC50): > 1000 nM
Cell Count Activity Area (CML-T1): 4.56
EC50 (CML-T1; Homo sapiens): 0.189 nM
GI50 (CML-T1; Homo sapiens): 0.694 nM
IC50 (CML-T1; [2]): 1.93 nM
EC50 (PC-3; Homo sapiens): 0.23 nM
GI50 (PC-3; Homo sapiens): 2.63 nM
IC50 (PC-3; Homo sapiens, PC-3, read-out: Cell Count IC50): > 1000 nM
Cell Count Activity Area (PC-3): 3.57
Cell Count Activity Area (AGS): 5.67
EC50 (AGS; [1]): 0.0387 nM
GI50 (AGS; Homo sapiens): 0.165 nM
IC50 (AGS; Homo sapiens): 0.314 nM
Cell Count Activity Area (T24): 4.39
EC50 (T24; Homo sapiens, T-24, read-out: Cell Count EC50): 0.0783 nM
GI50 (T24; Homo sapiens): 0.474 nM
IC50 (T24; Homo sapiens, T-24, read-out: Cell Count IC50): 2.1 nM
Cell Count Activity Area (SNU-C2B): 1.99
EC50 (SNU-C2B; Homo sapiens): > 1000 nM
GI50 (SNU-C2B; Homo sapiens): > 1000 nM
IC50 (SNU-C2B; [2]): > 1000 nM
EC50 (SK-UT-1; Homo sapiens): 0.2 nM
GI50 (SK-UT-1; Homo sapiens): > 1000 nM
IC50 (SK-UT-1; Homo sapiens, SK-UT-1, read-out: Cell Count IC50): > 1000 nM
Cell Count Activity Area (SK-UT-1): 3.23
Cell Count Activity Area (NCIH446): 1.69
EC50 (NCIH446; Homo sapiens): > 1000 nM
GI50 (NCIH446; Homo sapiens): 44.4 nM
IC50 (NCIH446; Homo sapiens, NCI-H446, read-out: Cell Count IC50): > 1000 nM
Cell Count Activity Area (786-O): 4.17
EC50 (786-O; Homo sapiens, 786-0): 0.227 nM
GI50 (786-O; Homo sapiens, 786-0): 1.13 nM
IC50 (786-O; Homo sapiens, 786-0, read-out: Cell Count IC50): 3.18 nM
Cell Count Activity Area (CRO-AP2): 6.22
EC50 (CRO-AP2; [1]): 0.119 nM
GI50 (CRO-AP2; Homo sapiens): 0.155 nM
IC50 (CRO-AP2; [2]): 0.187 nM
